Source: ChEMBL document CHEMBL1138241, “First gallamine-tacrine hybrid: design and characterization at cholinesterases and the M2 muscarinic receptor” (J Med Chem, 2007)

Experiments:
[1] = molecular target: Acetylcholinesterase (Homo sapiens, UniProt P22303)
Description: Inhibition of human Acetylcholinesterase

[2] = molecular target: Acetylcholinesterase (Torpedo californica, UniProt P04058)
Description: Inhibition of Torpedo californica Acetylcholinesterase

[3] = molecular target: Acetylcholinesterase (Electrophorus electricus, UniProt O42275)
Description: Inhibition of Electrophorus electricus Acetylcholinesterase

[4] = molecular target: T1, Muscarinic acetylcholine receptor M2 (Sus scrofa, UniProt P06199)
T1 sequence (P06199 whole entry): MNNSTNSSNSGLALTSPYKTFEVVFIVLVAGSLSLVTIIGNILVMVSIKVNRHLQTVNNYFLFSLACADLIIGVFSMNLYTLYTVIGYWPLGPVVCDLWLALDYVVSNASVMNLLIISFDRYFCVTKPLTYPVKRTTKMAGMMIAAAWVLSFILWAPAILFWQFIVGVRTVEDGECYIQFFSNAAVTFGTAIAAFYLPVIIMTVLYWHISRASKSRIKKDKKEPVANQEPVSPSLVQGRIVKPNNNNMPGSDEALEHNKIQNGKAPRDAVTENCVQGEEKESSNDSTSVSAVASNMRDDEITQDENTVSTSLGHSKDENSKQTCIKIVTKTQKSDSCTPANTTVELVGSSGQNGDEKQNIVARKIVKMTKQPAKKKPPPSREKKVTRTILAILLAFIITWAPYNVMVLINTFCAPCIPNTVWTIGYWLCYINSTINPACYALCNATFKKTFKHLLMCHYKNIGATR
Description: Inhibition of [3H]NMS dissociation from porcine muscarinic M2 receptor

Acetylcholinesterase (Homo sapiens, UniProt P22303), sequence (P22303 whole entry): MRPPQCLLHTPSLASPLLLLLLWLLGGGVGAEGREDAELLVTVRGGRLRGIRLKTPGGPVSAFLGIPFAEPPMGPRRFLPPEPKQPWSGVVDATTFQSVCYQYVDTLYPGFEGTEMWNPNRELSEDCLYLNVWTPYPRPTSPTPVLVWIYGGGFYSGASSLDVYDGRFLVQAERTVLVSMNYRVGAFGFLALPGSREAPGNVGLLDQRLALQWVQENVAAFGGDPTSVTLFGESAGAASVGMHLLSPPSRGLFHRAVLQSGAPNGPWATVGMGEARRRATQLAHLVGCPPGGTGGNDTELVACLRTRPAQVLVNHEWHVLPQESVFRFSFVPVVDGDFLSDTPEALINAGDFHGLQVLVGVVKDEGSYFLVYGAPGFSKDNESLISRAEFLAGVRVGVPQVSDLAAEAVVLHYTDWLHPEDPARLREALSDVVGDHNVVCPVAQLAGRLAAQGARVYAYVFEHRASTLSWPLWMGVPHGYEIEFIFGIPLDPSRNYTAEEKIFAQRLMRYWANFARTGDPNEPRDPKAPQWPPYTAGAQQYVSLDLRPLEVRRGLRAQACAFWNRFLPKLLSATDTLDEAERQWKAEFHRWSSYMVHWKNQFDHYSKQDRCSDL
Acetylcholinesterase (Electrophorus electricus, UniProt O42275), sequence (O42275 whole entry): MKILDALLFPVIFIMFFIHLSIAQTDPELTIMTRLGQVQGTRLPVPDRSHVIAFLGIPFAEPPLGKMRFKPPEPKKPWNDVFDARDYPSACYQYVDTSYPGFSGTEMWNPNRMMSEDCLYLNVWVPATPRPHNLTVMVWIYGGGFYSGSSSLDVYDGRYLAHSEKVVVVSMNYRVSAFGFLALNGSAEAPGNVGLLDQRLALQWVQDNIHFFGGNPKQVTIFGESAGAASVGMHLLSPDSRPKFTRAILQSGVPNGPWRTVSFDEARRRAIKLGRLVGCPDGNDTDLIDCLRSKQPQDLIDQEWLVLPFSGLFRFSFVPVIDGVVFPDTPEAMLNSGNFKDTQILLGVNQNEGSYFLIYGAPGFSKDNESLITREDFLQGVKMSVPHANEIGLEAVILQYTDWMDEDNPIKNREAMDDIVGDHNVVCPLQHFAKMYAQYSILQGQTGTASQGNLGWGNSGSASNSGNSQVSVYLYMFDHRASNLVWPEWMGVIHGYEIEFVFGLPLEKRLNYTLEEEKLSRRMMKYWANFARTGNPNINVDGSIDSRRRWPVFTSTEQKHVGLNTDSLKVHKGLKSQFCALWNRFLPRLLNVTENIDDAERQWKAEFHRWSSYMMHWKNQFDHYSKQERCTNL
Acetylcholinesterase (Torpedo californica, UniProt P04058), sequence (P04058 whole entry): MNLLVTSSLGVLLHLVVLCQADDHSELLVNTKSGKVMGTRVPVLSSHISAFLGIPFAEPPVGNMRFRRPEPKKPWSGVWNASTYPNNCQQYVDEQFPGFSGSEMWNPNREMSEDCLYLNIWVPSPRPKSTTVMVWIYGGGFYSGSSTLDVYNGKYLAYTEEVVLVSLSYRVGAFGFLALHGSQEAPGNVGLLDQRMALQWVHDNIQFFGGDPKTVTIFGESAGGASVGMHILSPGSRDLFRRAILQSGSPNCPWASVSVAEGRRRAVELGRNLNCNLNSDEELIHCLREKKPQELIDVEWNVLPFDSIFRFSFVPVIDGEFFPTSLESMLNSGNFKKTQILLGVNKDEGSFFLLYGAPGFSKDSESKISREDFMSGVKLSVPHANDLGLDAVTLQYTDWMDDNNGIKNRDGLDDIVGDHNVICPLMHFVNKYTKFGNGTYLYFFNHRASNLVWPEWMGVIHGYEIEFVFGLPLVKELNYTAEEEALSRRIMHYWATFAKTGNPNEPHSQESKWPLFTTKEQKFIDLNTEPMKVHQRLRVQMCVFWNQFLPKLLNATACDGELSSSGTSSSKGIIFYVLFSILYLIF

Row | Structure (SMILES) | IC50 [1] | IC50 [2] | IC50 [3] | EC50 [4]
1 | CC[N+](CC)(CC)CCOc1ccc(C(=O)NCCCCCC(=O)NNc2c3c(nc4ccccc24)CCCC3)cc1 | 0.00761 µM | 0.0176 µM | 0.000467 µM | 0.0013 µM
2 | CC[N+](CC)(CC)CCOc1cc(OCC[N+](CC)(CC)CC)cc(C(=O)NCCCCCC(=O)NNc2c3c(nc4cc(Cl)ccc24)CCCC3)c1 | 0.00675 µM | 0.301 µM | 0.048 µM | 0.0015 µM
3 | CC[N+](CC)(CC)CCOc1cc(OCC[N+](CC)(CC)CC)c(C(=O)NCCCCCC(=O)NNc2c3c(nc4cc(Cl)ccc24)CCCC3)cc1OCC[N+](CC)(CC)CC | 0.00654 µM | 0.334 µM | 0.09 µM | 0.001 µM
4 | CC[N+](CC)(CC)CCOc1cc(OCC[N+](CC)(CC)CC)c(C(=O)NCCCCCC(=O)NNc2c3c(nc4ccccc24)CCCC3)cc1OCC[N+](CC)(CC)CC | – | 0.0277 µM | – | 0.0014 µM
5 | CC[N+](CC)(CC)CCOc1cccc(OCC[N+](CC)(CC)CC)c1OCC[N+](CC)(CC)CC [GALLAMINE] | 2110 µM | – | 3150 µM | 0.13 µM
6 | CC[N+](CC)(CC)CCOc1ccc(C(=O)NCCCCCC(=O)NNc2c3c(nc4cc(Cl)ccc24)CCCC3)cc1 | 0.00544 µM | 0.127 µM | 0.026 µM | 0.005 µM
7 | CC[N+](CC)(CC)CCOc1cc(OCC[N+](CC)(CC)CC)cc(C(=O)NCCCCCC(=O)NNc2c3c(nc4ccccc24)CCCC3)c1 | 0.0158 µM | 0.00859 µM | 0.00128 µM | 0.0009 µM
